This is an account of results in publication PMC7175962 (Journal of medicinal chemistry, 2019).

One data set concerns the target KPC-2 (Klebsiella pneumoniae, UniProt Q9F663). The format is biochemical.
The test system of data set [1] is P. aeruginosa 4698 (VIM-2). Description: MIC of imipenem in combination with inhibitor. The format is cell-based.
The next data set has as its system E. coli 5980 (NDM-1). Description: MIC of imipenem in combination with inhibitor. The conditions noted are these: for reduction of imipenem MIC: compound at 128 μg/mL, NDM-1 producing E. coli. The format is cell-based.
Data set [2] has as its system Gram-negative pathogens (all strains). Description: Antibacterial activity of inhibitors alone. Format: cell-based. The following applies: for MIC: read-out: MIC of compound tested alone; for antibacterial effects by itself, without imipenem: 128 μg/mL.
In another data set the test system is E. cloacae 5981 (NDM-1). The data set is described as follows: MIC of imipenem in combination with inhibitor. The format is cell-based. The following applies: for reduction of imipenem MIC: compound at 128 μg/mL, NDM-1 producing E. cloacae.
The nature of data set [3]: Kinetic solubility in pH 7.4 PBS. Format: physicochemical.
For data set [4], the system named is K. pneumoniae 5979 (NDM-1). Description: MIC of imipenem in combination with inhibitor. The format is cell-based. The following applies: for reduction of imipenem MIC: compound at 128 μg/mL, NDM-1 producing K. pneumoniae.
For data set [5], the system named is K. pneumoniae C2 (KPC-2), clinical strain. Description: Checkerboard assay, imipenem plus inhibitor. The format is cell-based.
The subject of data set [6] is P. aeruginosa 4129 (NDM-1), lacking efflux pumps. The data set is described as follows: Checkerboard assay, imipenem plus inhibitor. The format is cell-based.
The test system of data set [7] is P. aeruginosa 4173 (vector). Description: MIC of imipenem, vector control strain. Format: cell-based. The following applies: Pseudomonas aeruginosa, read-out: MIC of imipenem.
Data set [8] has as its system K. pneumoniae 4683 (KPC-2). Description: MIC of imipenem in combination with inhibitor. The format is cell-based. The following applies: Klebsiella pneumoniae, read-out: MIC of imipenem.
In data set [9] the test system is P. aeruginosa(eflx+) 4402 (VIM-2). Description: Checkerboard assay, imipenem plus inhibitor. Format: cell-based. The conditions noted are these: Pseudomonas aeruginosa, read-out: MIC of imipenem.
The test system of data set [10] is P. aeruginosa(eflx+) 4177 (NDM-1). Description: Checkerboard assay, imipenem plus inhibitor. Format: cell-based.
Data set [11] deals with P. aeruginosa 4882 (VIM-2), lacking efflux pumps. Description: Checkerboard assay, imipenem plus inhibitor. Format: cell-based.
The test system of data set [12] is P. aeruginosa 4135 (KPC-2), lacking efflux pumps. The data set is described as follows: Checkerboard assay, imipenem plus inhibitor. The following applies: Pseudomonas aeruginosa, read-out: MIC of imipenem. Format: cell-based.
Data set [13] relates to P. aeruginosa(eflx+) 4175 (vector). The data set is described as follows: MIC of imipenem, vector control strain. The format is cell-based. The following applies: Pseudomonas aeruginosa, read-out: MIC of imipenem.
The next data set deals with VIM-2 (Pseudomonas aeruginosa, UniProt Q9K2N0). Description: VIM-2 inhibition, nitrocefin hydrolysis assay. Format: biochemical. The following applies: VIM-2 versus NDM-1.
In another data set the target is NDM-1 (Klebsiella pneumoniae, UniProt C7C422). The data set is described as follows: NDM-1 inhibition, nitrocefin hydrolysis assay. The format is biochemical.
Where [14] appears, read: Klebsiella pneumoniae, read-out: MIC of imipenem.
Where [15] appears, read: Pseudomonas aeruginosa, read-out: MIC of imipenem.

SMILES strings stand for the structures. Converted amounts (≈) assume the structure as drawn. Bounds are passed on as bounds.

Chain of KPC-2 (Q9F663 25-293, looked up): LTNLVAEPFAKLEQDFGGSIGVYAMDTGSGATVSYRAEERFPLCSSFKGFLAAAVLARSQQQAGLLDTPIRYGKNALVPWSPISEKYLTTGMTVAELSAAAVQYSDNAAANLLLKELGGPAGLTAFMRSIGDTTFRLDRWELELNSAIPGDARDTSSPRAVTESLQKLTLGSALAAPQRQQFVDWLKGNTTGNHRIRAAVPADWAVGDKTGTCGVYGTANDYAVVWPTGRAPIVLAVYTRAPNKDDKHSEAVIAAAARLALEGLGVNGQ
Chain of NDM-1 (C7C422 29-270, looked up): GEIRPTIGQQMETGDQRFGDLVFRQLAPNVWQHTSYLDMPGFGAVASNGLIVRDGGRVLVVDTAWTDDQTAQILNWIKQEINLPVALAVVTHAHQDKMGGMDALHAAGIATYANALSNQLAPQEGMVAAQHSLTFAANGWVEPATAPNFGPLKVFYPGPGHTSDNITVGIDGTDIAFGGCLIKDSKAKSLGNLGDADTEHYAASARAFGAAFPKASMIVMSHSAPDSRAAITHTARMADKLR

In the case of `O=P(O)(O)Cc1ccnc2ccccc12` [Compound 15, [(quinolin-4-yl)methyl]phosphonic acid], the “potencies and ligand efficiencies inferior to DHQ comparator 11 (KPC-2)” value at KPC-2 (relative to compound 11) is 2–5 times.

By MIC is commonly meant the lowest concentration found to suppress growth. Usually kinetic solubility stands for the concentration staying in solution when a stock, usually in DMSO, is diluted into the medium. With `Cc1cc(C)c2c(CP(=O)(O)O)cc(=O)[nH]c2c1` [Compound 13, [(5,7-dimethyl-2-oxo-1,2-dihydroquinolin-4-yl)methyl]phosphonic acid], the “MIC of imipenem in the presence of compound” value in data set [1] (compound at 128 μg/mL) was greater than 64 µg/mL. For the same molecule, the “reduction of imipenem MIC” value in data set [1] (compound at 128 μg/mL, VIM-2 producing P. aeruginosa) is “unable to rescue imipenem activity”; in the data set on E. coli 5980 (NDM-1), 4 fold; in the data set with E. cloacae 5981 (NDM-1), “unable to rescue imipenem activity”; in [4], “unable to rescue imipenem activity”. The MIC in data set [2] is greater than 128 µg/mL. In data set [3], the kinetic solubility was 51.6 µg/mL (≈ 193 µM).

In the case of `Cc1cc(Br)c2c(CP(=O)(O)O)cc(=O)oc2c1` [Compound 9, [(5-bromo-7-methyl-2-oxo-2H-chromen-4-yl)methyl]phosphonic acid], the “reduction of imipenem MIC” value in the data set on E. coli 5980 (NDM-1) is on record as 4 fold; in the data set on E. cloacae 5981 (NDM-1), “did not have any activity”; in data set [4], “more than 2 fold”. In addition, the “antibacterial effects by itself, without imipenem” value in data set [2] is on record as “neither 9 nor 16 showed any antibacterial effects”. The MIC in data set [2] was greater than 128 µg/mL.

Regarding `NC(=O)[C@@H]1CC[C@@H]2CN1C(=O)N2OS(=O)(=O)O` [avibactam], the “MIC of imipenem in the presence of avibactam” value in data set [5] (avibactam at 16 μg/mL) is 1 µg/mL. Also, the “reduction of imipenem MIC” value in [5] (inhibitor at 16 μg/mL) came to 512 fold.

In the case of `C[C@@H](O)[C@H]1C(=O)N2C(C(=O)O)=C(SCCN=CN)C[C@H]12` [Imipenem, imipenem, reference compound], the MIC in data set [5] (setting [14]) was 512 µg/mL; in data set [6] (setting [15]) it was 128 µg/mL; in data set [1] (setting [15]) it was greater than 64 µg/mL; in the data set with E. coli 5980 (NDM-1) (Escherichia coli, read-out: MIC of imipenem) it was 8 µg/mL; with E. cloacae 5981 (NDM-1) (Enterobacter cloacae, read-out: MIC of imipenem), 2 µg/mL; in data set [7], 2 µg/mL. The MIC is 64 µg/mL in [8]; 32 µg/mL in [9]; 128 µg/mL in data set [10] (setting [15]); 32 µg/mL in [11] (setting [15]); greater than 64 µg/mL in data set [4] (setting [14]); 64 µg/mL in data set [12]. In [13], the minimum inhibitory concentration (MIC) came to 2 µg/mL.

Take `O=c1cc(CP(=O)(O)O)c2c(Br)cc(Br)cc2[nH]1` [Compound 16, [(5,7-dibromo-2-oxo-1,2-dihydroquinolin-4-yl)methyl]phosphonic acid]: the “higher affinity for VIM-2 than NDM-1” value at VIM-2 is recorded as ~ 100 x. Further, the “MIC of imipenem in the presence of 16” value in [5] (16 at 16 μg/mL) turned out to be 16 µg/mL. Moreover, the “reduction of imipenem MIC” value is on record as 16 fold in [6] (16 at 128 μg/mL) and 16 fold in [11] (16 at 128 μg/mL, maximum observable). The “antibacterial effects by itself, without imipenem” value in [2] is recorded as “neither 9 nor 16 showed any antibacterial effects”. The “increase in activity on replacing C7-Me in 9 by -Br (KPC-2)” value on KPC-2 (relative to compound 9) is ~ 12 fold. Besides, the “activity improved over the parent DHQ analog 11 (KPC-2)” value on KPC-2 (relative to compound 11) is recorded as ~ 7,000 fold. Also, the solubility (kinetic) in data set [3] was found to be 95.9 µg/mL (≈ 242 µM). Also, in data set [10] (eflx+ versus efflux-deleted strain), the “decrease in potency by overexpressing efflux pumps, against NDM-1” value is “up to 4 fold”.

As for `O=c1cc(CP(=O)(O)O)c2c(F)cc(F)cc2o1` [Compound 8, [(5,7-difluoro-2-oxo-2H-chromen-4-yl)methyl]phosphonic acid], the “Ki (NDM-1)” value on NDM-1 (nitrocefin substrate, 37 °C, pH 7.2, 50 μM zinc sulfate) was “did not show inhibition”. Moreover, the “NDM-1 inhibition after pre-incubation of the compound with NDM-1” value at NDM-1 (pre-incubation, data not shown) is recorded as “weak inhibitory activity”.

Take `O=c1cc(CP(=O)(O)O)c2ccccc2[nH]1` [Compound 11, [(2-oxo-1,2-dihydroquinolin-4-yl)methyl]phosphonic acid]: the “MIC of imipenem in the presence of compound” value in data set [1] (compound at 128 μg/mL) is greater than 64 µg/mL. Besides, the “reduction of imipenem MIC” value (in the data set on E. coli 5980 (NDM-1); with E. cloacae 5981 (NDM-1); in data set [4]) was “little if any effect” throughout. In data set [2], the MIC is greater than 128 µg/mL.
